# In patent US20230077362A1 (CORTEVA AGRISCIENCE LLC, priority 2019, published 2023):
# Like-named read-outs stand apart in the source and are kept apart here.
# Key:
# [1] = test system: Beet Armyworm (Spodoptera exigua) ("BAW"), second instar larvae; assay: Bioassay on beet armyworm (BAW), 128-well diet tray assay; type: in vivo; conditions: for pest or weed control at 50 µg/cm2: Spodoptera exigua; for BAW rating: C = not tested, D = no activity noticed
# How it was run: (§1)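 Mortality (%) is scored well by well after five to seven days at 25° C. on a 14:10 light:dark regime. The value given is the mean of eight wells.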
# [2] = test system: Cabbage Looper (Trichoplusia ni) ("CL"), second instar larvae; assay: Bioassay on cabbage looper (CL), 128-well diet tray assay; type: in vivo; conditions: for CL rating: C = not tested, D = no activity noticed
# How it was run: as §1
# [3] = Trichoplusia ni, read-out: CL rating
# [4] = read-out: BAW (Biological Results, rating)
# [5] = Trichoplusia ni, read-out: CL (Biological Results, rating)
smiles,measurement,setting,value
"CN(C)c1ccc(OCC(F)(F)F)c(N2C(=O)CS/C2=N\C(=O)Nc2ccc(-n3cnc(-c4ccc(OC(F)(F)F)cc4)n3)cc2F)c1 [Compound J688, (Z)-1-(3-(5-(Dimethylamino)-2-(2,2,2-trifluoroethoxy)phenyl)-4-oxothiazolidin-2-ylidene)-3-(2-fluoro-4-(3-(4-(trifluoromethoxy)phenyl)-1H-1,2,4-triazol-1-yl)phenyl)urea]",pest or weed control at 50 µg/cm2,[1]; read-out: BAW rating,50 to 100%
same,pest or weed control at 50 µg/cm2,[2]; [3],50 to 100%
"CN(C)c1cccc(N2C(=O)CS/C2=N\C(=O)Nc2ccc(-c3ncn(-c4ccc(OC(F)(F)F)cc4)n3)cc2F)c1 [Compound J84, (Z)-1-(3-(3-(Dimethylamino)phenyl)-4-oxothiazolidin-2-ylidene)-3-(2-fluoro-4-(1-(4-(trifluoromethoxy)phenyl)-1H-1,2,4-triazol-3-yl)phenyl)urea]",pest or weed control at 50 µg/cm2,[1]; [4],50 to 100%
same,pest or weed control at 50 µg/cm2,[2]; [5],50 to 100%
"COc1ccc(C(C)C)c(N2C(=O)CS/C2=N\C(=O)Nc2ccc(-c3ncn(-c4ccc(OC(F)(F)C(F)(F)F)cc4)n3)cc2C)c1 [Compound J25, (Z)-1-(3-(2-Isopropyl-5-methoxyphenyl)-4-oxothiazolidin-2-ylidene)-3-(2-methyl-4-(1-(4-(perfluoroethoxy)phenyl)-1H-1,2,4-triazol-3-yl)phenyl)urea]",pest or weed control at 50 µg/cm2,[1]; [4],50 to 100%
same,pest or weed control at 50 µg/cm2,[2]; [5],50 to 100%
COc1ccc(COCC(F)(F)F)c(N2C(=O)CS/C2=N\C(=O)Nc2ccc(-c3ncn(-c4ccc(C(F)(F)F)cc4)n3)cc2F)c1 [Compound J581],BAW rating,"[1]; Table ABC, species BAW",A (50-100)
same,CL rating,"[2]; Table ABC, species CL",A (50-100)
"COC(C)c1ccc(C)cc1N1C(=O)CS/C1=N\C(=O)Nc1ccc(-c2cn(-c3ccc(C(F)(F)F)cc3)cn2)cc1 (stereo not shown) [Compound J513, (Z)-1-(3-(2-(1-Methoxyethyl)-5-methylphenyl)-4-oxothiazolidin-2-ylidene)-3-(4-(1-(4-(trifluoromethyl)phenyl)-1H-imidazol-4-yl)phenyl)urea]",pest or weed control at 50 µg/cm2,[1]; read-out: BAW rating,50 to 100%
same,pest or weed control at 50 µg/cm2,[2]; [3],50 to 100%
"Cc1ccc(C(C)C)c(N2C(=O)CS/C2=N\C(=O)Nc2ccc(-c3cn(-c4ccc(C(F)(F)F)cn4)cn3)cc2F)c1 [Compound J482, (Z)-1-(2-Fluoro-4-(1-(5-(trifluoromethyl)pyridin-2-yl)-1H-imidazol-4-yl)phenyl)-3-(3-(2-isopropyl-5-methylphenyl)-4-oxothiazolidin-2-ylidene)urea]",pest or weed control at 50 µg/cm2,[1]; read-out: BAW rating,50 to 100%
same,pest or weed control at 50 µg/cm2,[2]; [3],50 to 100%
"COC(C)c1ccc(C)cc1N1C(=O)CS/C1=N\C(=O)Nc1ccc(-c2cn(-c3ccc(S(F)(F)(F)(F)F)cc3)cn2)cc1C (stereo not shown) [Compound J614, (Z)-1-(3-(2-(1-Methoxyethyl)-5-methylphenyl)-4-oxothiazolidin-2-ylidene)-3-(2-methyl-4-(1-(4-(pentafluoro-λ^6-sulfaneyl)phenyl)-1H-imidazol-4-yl)phenyl)urea]",pest or weed control at 50 µg/cm2,[1]; read-out: BAW rating,50 to 100%
same,pest or weed control at 50 µg/cm2,[2]; [3],50 to 100%
Cc1ccc(COCCF)c(N2C(=O)CS/C2=N\C(=O)Nc2ccc(-c3ncn(-c4ccc(OC(F)(F)F)cc4)n3)cc2C)c1 [Compound J558],BAW rating,"[1]; Table ABC, species BAW",A (50-100)
same,CL rating,"[2]; Table ABC, species CL",A (50-100)
"CC(C)c1ccc(N(C)C)cc1N1C(=O)CS/C1=N\C(=O)Nc1ccc(-c2ncn(-c3cccc(OC(F)(F)F)c3)n2)cc1F [Compound J155, (Z)-1-(3-(5-(Dimethylamino)-2-isopropylphenyl)-4-oxothiazolidin-2-ylidene)-3-(2-fluoro-4-(1-(3-(trifluoromethoxy)phenyl)-1H-1,2,4-triazol-3-yl)phenyl)urea]",pest or weed control at 50 µg/cm2,[1]; [4],50 to 100%
same,pest or weed control at 50 µg/cm2,[2]; [5],50 to 100%
"CN(C)c1ccc(C(F)(F)F)c(N2C(=O)CS/C2=N\C(=O)Nc2ccc(-c3ncn(-c4ccc(OC(F)(F)F)cn4)n3)cc2F)c1 [Compound J262, (Z)-1-(3-(5-(Dimethylamino)-2-(trifluoromethyl)phenyl)-4-oxothiazolidin-2-ylidene)-3-(2-fluoro-4-(1-(5-(trifluoromethoxy)pyridin-2-yl)-1H-1,2,4-triazol-3-yl)phenyl)urea]",pest or weed control at 50 µg/cm2,[1]; [4],50 to 100%
same,pest or weed control at 50 µg/cm2,[2]; [5],50 to 100%
"COc1ccc(C(C)C)c(N2C(=O)CS/C2=N\C(=O)Nc2ccc(-c3ncn(-c4ccc(C(F)(F)F)cn4)n3)cc2F)c1 [Compound J283, (Z)-1-(2-fluoro-4-(1-(5-(trifluoromethyl)pyridin-2-yl)-1H-1,2,4-triazol-3-yl)phenyl)-3-(3-(2-isopropyl-5-methoxyphenyl)-4-oxothiazolidin-2-ylidene)urea]",pest or weed control at 50 µg/cm2,[1]; [4],50 to 100%
same,pest or weed control at 50 µg/cm2,[2]; [5],50 to 100%
Cc1ccc(COCCF)c(N2C(=O)CS/C2=N\C(=O)Nc2ccc(-c3ncn(-c4ccc(S(F)(F)(F)(F)F)cc4)n3)cc2C)c1 [Compound J557],BAW rating,"[1]; Table ABC, species BAW",A (50-100)
same,CL rating,"[2]; Table ABC, species CL",A (50-100)
"Cc1ccc(C(C)C)c(N2C(=O)CS/C2=N\C(=O)Nc2ccc(-c3ncn(-c4ccc(OC(F)(F)F)cc4)n3)c(C)c2)c1 [Compound J23, (Z)-1-(3-(2-Isopropyl-5-methylphenyl)-4-oxothiazolidin-2-ylidene)-3-(3-methyl-4-(1-(4-(trifluoromethoxy)phenyl)-1H-1,2,4-triazol-3-yl)phenyl)urea]",pest or weed control at 50 µg/cm2,[1]; [4],50 to 100%
same,pest or weed control at 50 µg/cm2,[2]; [5],50 to 100%
"COC(C)c1ccc(C)cc1N1C(=O)CS/C1=N\C(=O)Nc1ccc(-c2cn(-c3ccc(C(F)(F)F)cn3)cn2)cc1 (stereo not shown) [Compound J518, (Z)-1-(3-(2-(1-Methoxyethyl)-5-methylphenyl)-4-oxothiazolidin-2-ylidene)-3-(4-(1-(5-(trifluoromethyl)pyridin-2-yl)-1H-imidazol-4-yl)phenyl)urea]",pest or weed control at 50 µg/cm2,[1]; read-out: BAW rating,50 to 100%
same,pest or weed control at 50 µg/cm2,[2]; [3],50 to 100%
"Cc1ccc(COCC(F)(F)F)c(N2C(=O)CS/C2=N\C(=O)Nc2ccc(-c3cn(-c4ccc(C(F)(F)F)cc4)cn3)cc2)c1 [Compound J516, (Z)-1-(3-(5-Methyl-2-((2,2,2-trifluoroethoxy)methyl)phenyl)-4-oxothiazolidin-2-ylidene)-3-(4-(1-(4-(trifluoromethyl)phenyl)-1H-imidazol-4-yl)phenyl)urea]",pest or weed control at 50 µg/cm2,[1]; read-out: BAW rating,50 to 100%
same,pest or weed control at 50 µg/cm2,[2]; [3],50 to 100%
"Cc1ccc(OCCC(F)(F)F)c(N2C(=O)CS/C2=N\C(=O)Nc2ccc(-c3cn(-c4ccc(S(F)(F)(F)(F)F)cc4)cn3)cc2F)c1 [Compound J597, (Z)-1-(2-Fluoro-4-(1-(4-(pentafluoro-λ^6-sulfaneyl)phenyl)-1H-imidazol-4-yl)phenyl)-3-(3-(5-methyl-2-(3,3,3-trifluoropropoxy)phenyl)-4-oxothiazolidin-2-ylidene)urea]",pest or weed control at 50 µg/cm2,[1]; read-out: BAW rating,50 to 100%
same,pest or weed control at 50 µg/cm2,[2]; [3],50 to 100%
"Cc1ccc(OCCC(F)(F)F)c(N2C(=O)CS/C2=N\C(=O)Nc2ccc(-c3cn(-c4ccc(C(F)(F)F)cn4)cn3)cc2)c1 [Compound J522, (Z)-1-(3-(5-Methyl-2-(3,3,3-trifluoropropoxy)phenyl)-4-oxothiazolidin-2-ylidene)-3-(4-(1-(5-(trifluoromethyl)pyridin-2-yl)-1H-imidazol-4-yl)phenyl)urea]",pest or weed control at 50 µg/cm2,[1]; read-out: BAW rating,50 to 100%
same,pest or weed control at 50 µg/cm2,[2]; [3],50 to 100%
O=C(/N=C1\SCC(=O)N1c1ccccc1COCC(F)(F)F)Nc1ccc(-c2ncn(-c3ccc(C(F)(F)F)cc3)n2)cc1F [Compound J661],BAW rating,"[1]; Table ABC, species BAW",A (50-100)
same,CL rating,"[2]; Table ABC, species CL",A (50-100)
"COc1ccc(C(C)C)c(N2C(=O)CS/C2=N\C(=O)Nc2ccc(-c3ncn(-c4ccc(OC(F)(F)F)cc4)n3)cc2OC)c1 [Compound J6, (Z)-1-(3-(2-Isopropyl-5-methoxyphenyl)-4-oxothiazolidin-2-ylidene)-3-(2-methoxy-4-(1-(4-(trifluoromethoxy)phenyl)-1H-1,2,4-triazol-3-yl)phenyl)urea]",pest or weed control at 50 µg/cm2,[1]; [4],50 to 100%
same,pest or weed control at 50 µg/cm2,[2]; [5],50 to 100%
"COCc1ccc(N(C)C)cc1N1C(=O)CS/C1=N\C(=O)Nc1ccc(-n2cnc(-c3ccc(OC(F)(F)F)cc3)c2)cc1Cl [Compound J789, (Z)-1-(2-Chloro-4-(4-(4-(trifluoromethoxy)phenyl)-1H-imidazol-1-yl)phenyl)-3-(3-(5-(dimethylamino)-2-(methoxymethyl)phenyl)-4-oxothiazolidin-2-ylidene)urea]",BAW rating (% control or mortality class),"[1]; Table ABC, species BAW, 128-well diet tray assay, second instar larvae",A (50-100)
same,mortality at 50 µg/cm2,"[2]; Trichoplusia ni, Table ABC, species CL, 128-well diet tray assay, second instar larvae, read-out: CL rating (% control or mortality class)",50 to 100%
"CC(C)c1ccc(N(C)C)cc1N1C(=O)CS/C1=N\C(=O)Nc1ccc(-c2ncn(-c3ccc(OC(F)(F)F)cc3)n2)cc1Br [Compound J219, (Z)-1-(2-Bromo-4-(1-(4-(trifluoromethoxy)phenyl)-1H-1,2,4-triazol-3-yl)phenyl)-3-(3-(5-(dimethylamino)-2-isopropylphenyl)-4-oxothiazolidin-2-ylidene)urea]",pest or weed control at 50 µg/cm2,[1]; [4],50 to 100%
same,pest or weed control at 50 µg/cm2,[2]; [5],50 to 100%
"CC(C)c1cc(F)c(N(C)C)cc1N1C(=O)CS/C1=N\C(=O)Nc1ccc(-c2ncn(-c3ccc([S+]([O-])C(F)(F)F)cc3)n2)cc1F (stereo not shown) [Compound J384, (Z)-1-(3-(5-(Dimethylamino)-4-fluoro-2-isopropylphenyl)-4-oxothiazolidin-2-ylidene)-3-(2-fluoro-4-(1-(4-((trifluoromethyl)sulfinyl)phenyl)-1H-1,2,4-triazol-3-yl)phenyl)urea]",pest or weed control at 50 µg/cm2,[1]; read-out: BAW rating,50 to 100%
same,pest or weed control at 50 µg/cm2,[2]; [3],50 to 100%
"Cc1ccc(C(C)C)c(N2C(=O)CS/C2=N\C(=O)Nc2ccc(-c3ncn(-c4ccc(OC(F)(F)C(F)(F)F)cc4)n3)cc2F)c1 [Compound J26, (Z)-1-(2-Fluoro-4-(1-(4-(perfluoroethoxy)phenyl)-1H-1,2,4-triazol-3-yl)phenyl)-3-(3-(2-isopropyl-5-methylphenyl)-4-oxothiazolidin-2-ylidene)urea]",pest or weed control at 50 µg/cm2,[1]; [4],50 to 100%
same,pest or weed control at 50 µg/cm2,[2]; [5],50 to 100%
